The supplement of paper PMC10307832

Experiments:
Assay in all cases: relative viability (nuclei count vs DMSO), 5 days (fraction); higher = more cells survive
[1] = compound: CN1CCN(c2ccc3nc(-c4c(N)c5c(F)cccc5[nH]c4=O)[nH]c3c2)CC1 [Dovitinib] + CS(=O)(=O)CCNCc1ccc(-c2ccc3ncnc(Nc4ccc(OCc5cccc(F)c5)c(Cl)c4)c3c2)o1 [Lapatinib] (partner 2 µM)
In short: (§1)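 Lung cancer cell lines were seeded in 1536-well plates and dosed by pin tool the next day, with either a single drug or a fixed anchor-drug dose combined with five library-drug doses (not always all listed) spaced in √10 steps. Five days later, one step fixed the cells and stained their nuclei (final 0.05% Triton X-100, 1% formaldehyde, 1 ug/ml Hoechst), and nuclei were counted on 4× images. Relative viability is the nuclei count in treated wells divided by the count in vehicle wells, and each value is the median of duplicate plates.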

[2] = compound: CN1CCN(c2ccc3nc(-c4c(N)c5c(F)cccc5[nH]c4=O)[nH]c3c2)CC1 [Dovitinib] + C[C@@H](Oc1cc(-c2cnn(C3CCNCC3)c2)cnc1N)c1c(Cl)ccc(F)c1Cl [Crizotinib] (partner 1 µM)
In short: as §1

[3] = compound: CN1CCN(c2ccc3nc(-c4c(N)c5c(F)cccc5[nH]c4=O)[nH]c3c2)CC1 [Dovitinib] + Cc1nc(Nc2ncc(C(=O)Nc3c(C)cccc3Cl)s2)cc(N2CCN(CCO)CC2)n1 [Dasatinib] (partner 0.075 µM)
In short: as §1

[4] = compound: CN1CCN(c2ccc3nc(-c4c(N)c5c(F)cccc5[nH]c4=O)[nH]c3c2)CC1 [Dovitinib] + Nc1nc2[nH]cc(CCc3ccc(C(=O)N[C@@H](CCC(=O)O)C(=O)O)cc3)c2c(=O)[nH]1 [Pemetrexed] (partner 0.2 µM)
In short: as §1

Row | Cell Line | relative viability ([1]; first compound 0.02 µM) | relative viability ([1]; first compound 0.06325 µM) | relative viability ([1]; first compound 0.2 µM) | relative viability ([1]; first compound 0.6325 µM) | relative viability ([1]; first compound 2 µM) | relative viability ([2]; first compound 0.02 µM) | relative viability ([2]; first compound 0.06325 µM) | relative viability ([2]; first compound 0.2 µM) | relative viability ([2]; first compound 0.6325 µM) | relative viability ([2]; first compound 2 µM) | relative viability ([3]; first compound 0.02 µM) | relative viability ([3]; first compound 0.06325 µM) | relative viability ([3]; first compound 0.2 µM) | relative viability ([3]; first compound 0.6325 µM) | relative viability ([3]; first compound 2 µM) | relative viability ([4]; first compound 0.02 µM) | relative viability ([4]; first compound 0.06325 µM) | relative viability ([4]; first compound 0.2 µM) | relative viability ([4]; first compound 0.6325 µM) | relative viability ([4]; first compound 2 µM)
1 | NCI-H647 | 1.11 | 1.33 | 1.21 | 1.06 | 0.755 | 1.03 | 1.14 | 1.24 | 1.01 | 1.1 | 0.151 | 0.152 | 0.209 | 0.171 | 0.21 | 0.194 | 0.189 | 0.154 | 0.191 | 0.177
2 | A-427 | 1.02 | 0.952 | 1.01 | 0.975 | 1.05 | 0.854 | 0.812 | 0.85 | 0.708 | 0.819 | 0.624 | 0.654 | 0.673 | 0.634 | 0.698 | 0.907 | 0.988 | 1.04 | 0.967 | 1.06
3 | COR-L 105 | 0.39 | 0.367 | 0.341 | 0.327 | 0.407 | 0.706 | 0.832 | 0.774 | 0.701 | 0.69 | 0.34 | 0.34 | 0.332 | 0.439 | 0.393 | 1.23 | 1.09 | 1.05 | 1 | 0.92
4 | NCI-H2126 | 0.692 | 0.726 | 0.744 | 0.734 | 0.797 | 1.03 | 1.04 | 1.05 | 1.02 | 1.08 | 0.599 | 0.596 | 0.766 | 0.622 | 0.623 | 0.734 | 0.653 | 0.676 | 0.705 | 0.711
5 | NCI-H460 | 0.913 | 1.05 | 1 | 0.878 | 1.03 | 0.852 | 1.02 | 0.869 | 0.941 | 0.919 | 0.407 | 0.489 | 0.555 | 0.505 | 0.476 | 0.0606 | 0.0581 | 0.0649 | 0.0683 | 0.0626
6 | SK-LU-1 | 0.735 | 0.927 | 0.875 | 0.814 | 0.823 | 0.835 | 0.984 | 0.86 | 0.958 | 0.974 | 0.167 | 0.176 | 0.21 | 0.185 | 0.19 | 0.985 | 0.92 | 0.913 | 1 | 1.02
7 | NCI-H322M | 0.5 | 0.53 | 0.587 | 0.657 | 0.57 | 0.893 | 0.874 | 0.976 | 0.928 | 1.06 | 0.24 | 0.263 | 0.243 | 0.249 | 0.284 | 0.597 | 0.613 | 0.634 | 0.607 | 0.6
8 | EKVX | 0.252 | 0.189 | 0.257 | 0.21 | 0.21 | 0.937 | 0.975 | 1.08 | 0.988 | 0.906 | 0.517 | 0.662 | 0.588 | 0.61 | 0.611 | 0.434 | 0.385 | 0.42 | 0.46 | 0.372
9 | NCI-H1734 | 1.11 | 1.02 | 1.05 | 1.09 | 0.503 | 0.635 | 0.664 | 0.637 | 0.598 | 0.643 | 0.431 | 0.501 | 0.436 | 0.439 | 0.452 | 0.443 | 0.442 | 0.414 | 0.403 | 0.418
10 | NCI-H520 | 0.826 | 0.822 | 0.903 | 0.79 | 0.921 | 0.746 | 0.724 | 0.782 | 0.781 | 0.798 | 0.165 | 0.188 | 0.235 | 0.179 | 0.218 | 0.687 | 0.683 | 0.615 | 0.596 | 0.635
11 | EPLC-272H | 0.992 | 0.939 | 0.94 | 1.1 | 1.23 | 0.799 | 0.994 | 0.981 | 1.09 | 0.972 | 0.351 | 0.346 | 0.36 | 0.37 | 0.31 | 0.408 | 0.35 | 0.274 | 0.398 | 0.372
12 | UMC-11 | 1.04 | 1.01 | 0.96 | 0.963 | 0.724 | 0.636 | 0.716 | 0.576 | 0.514 | 0.733 | 0.423 | 0.481 | 0.492 | 0.493 | 0.492 | 0.808 | 0.787 | 0.838 | 0.876 | 0.822
13 | NCI-H1792 | 0.852 | 0.892 | 0.952 | 1.06 | 0.855 | 0.998 | 0.977 | 0.997 | 1.04 | 0.971 | 0.873 | 0.738 | 0.775 | 0.793 | 0.803 | 0.909 | 0.631 | 0.672 | 0.972 | 0.827
14 | NCI-H1993 | 0.853 | 0.803 | 0.952 | 0.799 | 0.731 | 0.917 | 0.818 | 0.811 | 1.04 | 0.942 | 0.748 | 0.634 | 0.599 | 0.684 | 0.261 | 0.665 | 0.521 | 0.633 | 0.594 | 0.486
15 | NCI-H596 | 1.05 | 1.13 | 1.14 | 0.894 | 1 | 0.989 | 0.916 | 1.11 | 1.14 | 0.984 | 0.646 | 0.523 | 0.552 | 0.647 | 0.534 | 0.512 | 0.493 | 0.506 | 0.51 | 0.532
16 | NCI-H1563 | 0.92 | 0.994 | 0.944 | 0.982 | 1.18 | 0.829 | 0.855 | 0.839 | 0.838 | 0.814 | 0.478 | 0.475 | 0.469 | 0.507 | 0.509 | 0.692 | 0.922 | 0.933 | 0.913 | 0.829
17 | HCC-827 | 0.191 | 0.171 | 0.216 | 0.202 | 0.191 | 0.91 | 0.867 | 0.932 | 0.93 | 0.94 | 0.358 | 0.327 | 0.357 | 0.366 | 0.407 | 0.259 | 0.119 | 0.245 | 0.264 | 0.25
18 | NCI-H2228 | 1.18 | 0.942 | 0.991 | 1.08 | 0.831 | 0.399 | 0.379 | 0.436 | 0.454 | 0.367 | 0.549 | 0.624 | 0.495 | 0.435 | 0.588 | 0.258 | 0.344 | 0.324 | 0.33 | 0.321
19 | NCI-H2170 | 0.291 | 0.243 | 0.273 | 0.267 | 0.277 | 1.12 | 1.23 | 1.23 | 1.14 | 1.2 | 0.552 | 0.566 | 0.608 | 0.599 | 0.552 | 0.267 | 0.33 | 0.267 | 0.265 | 0.281
20 | EMC-BAC-2 | 0.886 | 0.839 | 0.898 | 0.807 | 0.923 | 0.702 | 0.699 | 0.749 | 0.62 | 0.776 | 0.362 | 0.284 | 0.341 | 0.299 | 0.202 | 0.555 | 0.442 | 0.487 | 0.445 | 0.459
21 | NCI-H23 | 1.02 | 1.09 | 1.05 | 1.13 | 1.17 | 0.539 | 0.531 | 0.526 | 0.421 | 0.554 | 0.837 | 0.729 | 0.976 | 0.731 | 0.734 | 0.79 | 0.592 | 0.623 | 0.674 | 0.658
22 | RERF-LC-KJ | 0.94 | 0.884 | 0.853 | 0.909 | 0.825 | 0.796 | 0.817 | 0.86 | 0.815 | 0.861 | 0.842 | 0.842 | 0.998 | 0.765 | 0.915 | 0.47 | 0.49 | 0.483 | 0.475 | 0.47
23 | NCI-H358 | 0.507 | 0.417 | 0.446 | 0.492 | 0.438 | 0.569 | 0.566 | 0.507 | 0.459 | 0.793 | 0.154 | 0.177 | 0.176 | 0.184 | 0.179 | 0.169 | 0.171 | 0.186 | 0.18 | 0.176
24 | LC-2-ad | 0.772 | 0.962 | 1.04 | 1.02 | 0.686 | 0.486 | 0.436 | 0.5 | 0.453 | 0.465 | 0.661 | 0.524 | 0.55 | 0.514 | 0.429 | 0.27 | 0.29 | 0.306 | 0.259 | 0.269
25 | HCC-15 | 0.853 | 0.857 | 0.91 | 0.874 | 0.845 | 0.756 | 0.841 | 0.719 | 0.79 | 0.812 | 0.673 | 0.548 | 0.664 | 0.59 | 0.561 | 0.225 | 0.228 | 0.213 | 0.231 | 0.216
26 | NCI-H2405 | 1.1 | 0.946 | 1.04 | 1.09 | 1.35 | 0.87 | 0.762 | 0.862 | 0.773 | 0.935 | 0.201 | 0.222 | 0.174 | 0.204 | 0.235 | 1.05 | 1.02 | 1.25 | 1.08 | 1.11
